Source: ChEMBL document CHEMBL4732086, “Targeting nuclear protein TDP-43 by cell division cycle kinase 7 inhibitors: A new therapeutic approach for amyotrophic lateral sclerosis” (Eur J Med Chem, 2021)
The source made the active and inactive calls. No cut-off for these calls is given here.

Experiments:
[1] = target: T1, Serine/threonine-protein kinase Chk1 (Homo sapiens) (UniProt O14757); assay: Inhibition of human CHK1 using serine/threonine-07 peptide as substrate at 10 uM incubated for 60 mins in presence of ATP by Z'-LYTE assay
T1 sequence (whole entry): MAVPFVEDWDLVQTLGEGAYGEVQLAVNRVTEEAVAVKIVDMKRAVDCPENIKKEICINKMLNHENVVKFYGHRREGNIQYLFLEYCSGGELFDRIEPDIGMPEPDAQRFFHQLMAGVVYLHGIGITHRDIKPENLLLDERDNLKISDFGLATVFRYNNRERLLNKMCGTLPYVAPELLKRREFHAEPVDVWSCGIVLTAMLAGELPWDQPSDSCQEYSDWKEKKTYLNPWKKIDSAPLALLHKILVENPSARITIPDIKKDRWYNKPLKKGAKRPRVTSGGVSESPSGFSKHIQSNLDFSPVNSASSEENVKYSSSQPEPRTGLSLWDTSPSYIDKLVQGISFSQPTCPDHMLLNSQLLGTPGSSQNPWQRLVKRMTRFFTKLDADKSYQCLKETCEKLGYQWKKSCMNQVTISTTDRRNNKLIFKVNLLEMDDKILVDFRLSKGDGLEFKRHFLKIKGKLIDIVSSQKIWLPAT

[2] = target: T2, Dual specificity tyrosine-phosphorylation-regulated kinase 3 (Homo sapiens) (UniProt O43781); assay: Inhibition of recombinant human full length GST-tagged DYRK3 expressed in baculovirus expression system using serine/threonine-18 peptide as substrate at 10 uM incubated for 60 mins in presence of ATP by Z'-LYTE assay
T2 sequence (whole entry): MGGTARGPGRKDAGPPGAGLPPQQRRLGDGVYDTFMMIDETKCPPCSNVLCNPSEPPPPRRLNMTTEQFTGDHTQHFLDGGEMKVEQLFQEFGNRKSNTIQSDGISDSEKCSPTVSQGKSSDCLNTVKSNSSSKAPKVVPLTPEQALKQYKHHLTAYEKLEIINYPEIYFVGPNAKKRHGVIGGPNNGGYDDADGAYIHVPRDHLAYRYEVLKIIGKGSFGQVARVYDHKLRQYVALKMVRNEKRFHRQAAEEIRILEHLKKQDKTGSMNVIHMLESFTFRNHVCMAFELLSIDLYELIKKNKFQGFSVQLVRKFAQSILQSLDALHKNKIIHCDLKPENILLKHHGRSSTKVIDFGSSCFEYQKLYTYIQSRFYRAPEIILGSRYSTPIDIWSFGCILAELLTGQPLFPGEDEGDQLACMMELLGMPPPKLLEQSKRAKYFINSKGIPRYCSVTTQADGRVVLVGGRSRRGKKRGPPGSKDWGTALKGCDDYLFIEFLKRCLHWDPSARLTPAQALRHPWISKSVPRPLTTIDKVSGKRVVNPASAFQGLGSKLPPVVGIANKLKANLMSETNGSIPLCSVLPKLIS

Homo sapiens = species: Homo sapiens; assay: Inhibition of recombinant full length human His-tagged CDK1/CyclinB expressed in baculovirus expression system using serine/threonine-18 peptide as substrate at 10 uM incubated for 60 mins in presence of ATP by Z'-LYTE assay
[3] = target: Mitogen-activated protein kinase 7 (Homo sapiens) (UniProt Q13164); assay: Inhibition of recombinant human full length GST-tagged MAPK7 expressed in baculovirus expression system using serine/threonine-04 peptide as substrate at 10 uM by Z'-LYTE assay; settings: time 60.0 min
Sequence of Mitogen-activated protein kinase 7 (Homo sapiens) (Q13164 2-816 limits assumed): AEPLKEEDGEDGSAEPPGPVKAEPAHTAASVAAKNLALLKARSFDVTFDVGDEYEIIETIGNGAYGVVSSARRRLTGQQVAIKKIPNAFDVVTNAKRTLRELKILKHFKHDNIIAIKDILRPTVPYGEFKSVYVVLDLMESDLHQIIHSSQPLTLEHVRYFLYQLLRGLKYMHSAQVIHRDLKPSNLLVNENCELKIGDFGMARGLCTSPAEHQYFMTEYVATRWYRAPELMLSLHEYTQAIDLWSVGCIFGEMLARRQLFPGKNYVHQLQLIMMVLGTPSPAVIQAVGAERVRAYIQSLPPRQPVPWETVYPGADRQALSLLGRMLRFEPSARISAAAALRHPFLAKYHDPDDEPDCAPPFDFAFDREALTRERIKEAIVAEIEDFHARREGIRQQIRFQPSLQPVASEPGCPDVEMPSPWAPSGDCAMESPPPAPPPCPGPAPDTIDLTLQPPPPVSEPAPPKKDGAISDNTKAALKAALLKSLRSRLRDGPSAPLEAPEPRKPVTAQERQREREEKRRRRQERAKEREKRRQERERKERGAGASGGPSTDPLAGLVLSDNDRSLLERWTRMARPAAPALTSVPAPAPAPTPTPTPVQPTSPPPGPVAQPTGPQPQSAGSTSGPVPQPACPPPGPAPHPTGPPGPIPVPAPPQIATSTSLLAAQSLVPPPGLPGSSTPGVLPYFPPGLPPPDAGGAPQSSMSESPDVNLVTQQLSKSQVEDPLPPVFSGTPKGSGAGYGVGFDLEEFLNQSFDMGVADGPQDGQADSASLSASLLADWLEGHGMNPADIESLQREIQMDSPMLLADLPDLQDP

[4] = target: Serine/threonine-protein kinase MARK2 (Homo sapiens) (UniProt Q7KZI7); assay: Inhibition of recombinant human full length GST-tagged MARK2 expressed in baculovirus expression system using serine/threonine-21 peptide as substrate at 10 uM by Z'-LYTE assay; settings: time 60.0 min
Sequence of Serine/threonine-protein kinase MARK2 (Homo sapiens) (Q7KZI7 whole entry, canonical isoform): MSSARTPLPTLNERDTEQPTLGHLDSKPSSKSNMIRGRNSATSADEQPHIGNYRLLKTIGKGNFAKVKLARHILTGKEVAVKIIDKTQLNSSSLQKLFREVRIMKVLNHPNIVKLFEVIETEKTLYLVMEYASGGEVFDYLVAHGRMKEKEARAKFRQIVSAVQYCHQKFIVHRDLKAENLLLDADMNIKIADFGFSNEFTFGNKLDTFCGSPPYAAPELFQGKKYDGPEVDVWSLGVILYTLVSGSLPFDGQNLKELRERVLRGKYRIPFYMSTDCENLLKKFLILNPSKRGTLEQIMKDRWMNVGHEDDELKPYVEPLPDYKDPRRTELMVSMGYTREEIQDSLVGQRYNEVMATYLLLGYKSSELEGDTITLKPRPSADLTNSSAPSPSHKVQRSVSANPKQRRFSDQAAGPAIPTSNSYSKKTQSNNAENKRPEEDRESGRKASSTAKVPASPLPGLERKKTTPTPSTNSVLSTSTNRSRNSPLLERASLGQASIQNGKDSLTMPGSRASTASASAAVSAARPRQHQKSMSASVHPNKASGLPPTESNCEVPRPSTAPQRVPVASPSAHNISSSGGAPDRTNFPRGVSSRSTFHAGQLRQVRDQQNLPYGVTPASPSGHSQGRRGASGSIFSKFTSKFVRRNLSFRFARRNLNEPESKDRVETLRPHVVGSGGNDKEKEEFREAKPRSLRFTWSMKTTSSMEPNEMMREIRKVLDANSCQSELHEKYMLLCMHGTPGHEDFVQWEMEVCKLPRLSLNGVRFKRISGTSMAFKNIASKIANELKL

[5] = target: Casein kinase I isoform alpha (Homo sapiens) (UniProt P48729); assay: Inhibition of human CSNK1A1 expressed in baculovirus expression system using serine/threonine-11 peptide as substrate at 10 uM incubated for 60 mins in presence of ATP by Z'-LYTE assay
Sequence of Casein kinase I isoform alpha (Homo sapiens) (P48729 2-337 limits assumed): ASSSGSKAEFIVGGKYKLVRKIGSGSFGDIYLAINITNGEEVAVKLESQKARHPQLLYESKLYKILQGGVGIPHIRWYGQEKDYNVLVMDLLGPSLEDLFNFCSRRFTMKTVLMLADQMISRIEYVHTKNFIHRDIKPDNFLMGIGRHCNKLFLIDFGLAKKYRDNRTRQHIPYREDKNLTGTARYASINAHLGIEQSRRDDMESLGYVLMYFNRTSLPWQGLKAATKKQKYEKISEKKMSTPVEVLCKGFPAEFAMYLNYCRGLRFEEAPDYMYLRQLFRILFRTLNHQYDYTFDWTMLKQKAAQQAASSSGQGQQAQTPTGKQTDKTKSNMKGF

[6] = target: T3, Interleukin-1 receptor-associated kinase 4 (Homo sapiens) (UniProt Q9NWZ3); assay: Inhibition of recombinant human full length His-tagged IRAK4 expressed in baculovirus expression system using serine/threonine-07 peptide as substrate at 10 uM incubated for 60 mins in presence of ATP by Z'-LYTE assay
T3 sequence (whole entry): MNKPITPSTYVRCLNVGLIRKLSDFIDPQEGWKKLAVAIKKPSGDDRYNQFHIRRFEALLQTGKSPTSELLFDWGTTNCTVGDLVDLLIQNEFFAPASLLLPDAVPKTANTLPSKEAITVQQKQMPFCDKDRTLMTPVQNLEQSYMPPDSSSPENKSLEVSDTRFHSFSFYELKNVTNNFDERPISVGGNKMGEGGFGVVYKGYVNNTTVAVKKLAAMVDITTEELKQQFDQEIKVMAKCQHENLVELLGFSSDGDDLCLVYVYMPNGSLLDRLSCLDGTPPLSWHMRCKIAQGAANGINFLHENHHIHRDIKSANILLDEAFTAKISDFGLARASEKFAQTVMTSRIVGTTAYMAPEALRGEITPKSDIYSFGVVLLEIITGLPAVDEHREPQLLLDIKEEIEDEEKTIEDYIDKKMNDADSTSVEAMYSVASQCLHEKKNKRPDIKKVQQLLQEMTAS

[7] = target: T4, Mitogen-activated protein kinase 12 (Homo sapiens) (UniProt P53778); assay: Inhibition of recombinant human full length His-tagged MAPK12 expressed in baculovirus expression system using serine/threonine-03 peptide as substrate at 10 uM incubated for 60 mins in presence of ATP by Z'-LYTE assay
T4 sequence (whole entry): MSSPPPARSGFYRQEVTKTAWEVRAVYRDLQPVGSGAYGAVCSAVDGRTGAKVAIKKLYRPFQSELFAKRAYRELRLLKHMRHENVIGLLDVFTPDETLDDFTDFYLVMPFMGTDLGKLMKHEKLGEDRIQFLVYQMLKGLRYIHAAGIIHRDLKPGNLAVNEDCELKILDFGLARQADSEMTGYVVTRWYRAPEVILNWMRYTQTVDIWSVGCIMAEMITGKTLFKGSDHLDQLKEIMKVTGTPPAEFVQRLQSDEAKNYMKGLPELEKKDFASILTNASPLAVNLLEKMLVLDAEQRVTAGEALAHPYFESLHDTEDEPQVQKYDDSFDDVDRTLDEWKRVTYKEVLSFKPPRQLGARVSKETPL

[8] = target: Homeodomain-interacting protein kinase 1 (Homo sapiens) (UniProt Q86Z02); assay: Inhibition of recombinant human full length GST-tagged HIPK1 expressed in baculovirus expression system using serine/threonine-09 peptide as substrate at 10 uM incubated for 60 mins in presence of ATP by Z'-LYTE assay
Sequence of Homeodomain-interacting protein kinase 1 (Homo sapiens) (Q86Z02 whole entry, looked up): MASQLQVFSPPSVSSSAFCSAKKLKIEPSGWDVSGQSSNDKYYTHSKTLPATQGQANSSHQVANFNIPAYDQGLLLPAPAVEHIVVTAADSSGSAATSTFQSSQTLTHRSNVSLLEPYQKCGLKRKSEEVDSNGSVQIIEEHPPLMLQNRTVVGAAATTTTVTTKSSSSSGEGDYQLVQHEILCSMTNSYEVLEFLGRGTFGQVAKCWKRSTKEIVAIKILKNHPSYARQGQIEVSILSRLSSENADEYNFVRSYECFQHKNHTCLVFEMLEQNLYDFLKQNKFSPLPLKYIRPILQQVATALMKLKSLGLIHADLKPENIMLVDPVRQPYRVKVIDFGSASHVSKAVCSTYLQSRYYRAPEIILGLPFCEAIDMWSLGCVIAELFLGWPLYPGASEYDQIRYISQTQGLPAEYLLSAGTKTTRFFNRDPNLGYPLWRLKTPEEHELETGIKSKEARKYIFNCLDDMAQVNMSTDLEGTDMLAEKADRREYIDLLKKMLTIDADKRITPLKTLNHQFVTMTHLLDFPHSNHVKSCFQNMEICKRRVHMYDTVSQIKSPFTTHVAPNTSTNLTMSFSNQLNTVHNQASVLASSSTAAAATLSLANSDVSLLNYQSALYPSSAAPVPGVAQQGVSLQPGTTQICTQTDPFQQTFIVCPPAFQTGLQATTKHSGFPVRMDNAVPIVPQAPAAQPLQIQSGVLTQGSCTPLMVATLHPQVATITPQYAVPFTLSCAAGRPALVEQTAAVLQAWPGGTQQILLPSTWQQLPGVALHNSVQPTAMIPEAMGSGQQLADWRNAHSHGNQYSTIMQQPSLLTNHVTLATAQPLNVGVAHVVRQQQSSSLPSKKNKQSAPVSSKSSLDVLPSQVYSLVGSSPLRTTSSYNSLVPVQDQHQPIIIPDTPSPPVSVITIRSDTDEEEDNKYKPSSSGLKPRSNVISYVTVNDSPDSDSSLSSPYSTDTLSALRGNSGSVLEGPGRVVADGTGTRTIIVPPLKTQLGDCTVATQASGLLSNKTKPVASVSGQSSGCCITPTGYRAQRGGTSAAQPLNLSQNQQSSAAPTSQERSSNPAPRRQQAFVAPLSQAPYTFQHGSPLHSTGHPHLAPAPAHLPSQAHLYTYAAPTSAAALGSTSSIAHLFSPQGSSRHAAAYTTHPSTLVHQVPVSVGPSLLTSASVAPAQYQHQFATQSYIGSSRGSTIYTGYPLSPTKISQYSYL

[9] = target: CDK2/Cyclin A2 (Homo sapiens) (UniProt P24941+P20248); assay: Inhibition of recombinant full length human His-tagged CDK2/Cyclin A expressed in baculovirus expression system using serine/threonine-12 peptide as substrate at 10 uM incubated for 60 mins in presence of ATP by Z'-LYTE assay

Row | inhibition [1] | inhibition [2] | inhibition (Homo sapiens) | inhibition [3] | inhibition [4] | inhibition [5] | inhibition [6] | inhibition [7] | inhibition [8] | inhibition [9] | SMILES
1 | inactive | inactive | inactive | inactive | inactive | inactive | inactive | inactive | inactive | inactive | c1ccc(CSc2ncnc3[nH]cnc23)cc1
2 | inactive | inactive | inactive | inactive | inactive | inactive | inactive | inactive | inactive | inactive | Clc1cccc(CSc2ncnc3[nH]cnc23)c1

Row | SMILES | inhibition [1] | inhibition [2] | inhibition (Homo sapiens) | inhibition [3] | inhibition [4] | inhibition [5] | inhibition [6] | inhibition [7] | inhibition [8] | inhibition [9]
3 | Brc1ccccc1CSc1ncnc2[nH]cnc12 | inactive | inactive | inactive | inactive | inactive | inactive | inactive | inactive | inactive | inactive
